# In article PMC7859449, “Short Chain (≤C4) Esterification Increases Bioavailability of Rosmarinic Acid and Its Potency to Inhibit Vascular Smooth Muscle Cell Proliferation” (Frontiers in Pharmacology, 2021):
# “And” between values parts separate entries of the source, which are not always exact repeats. Equal entries are not always repeated. Where two headings read alike, the source gives them in different places.
# How the values were obtained:
# [1] = tested on: PDGF-BB-induced VSMC proliferation; experiment: Proliferation assay (resazurin conversion) in PDGF-BB-stimulated VSMC; type: cell-based, rat; settings: for activity at 10 µM / IC50: Rattus norvegicus, resazurin; for activity at 10 µM: VSMC, 10 μmol/L, PDGF-BB 20 ng/mL 48 h, read-out: VSMC proliferation at 10 μmol/L (relative to vehicle control, RU); for IC50: PDGF-BB-induced VSMC proliferation
# Protocol: Primary VSMC were cultivated in DMEM-F12 (1:1) supplemented with 20% fetal bovine serum, 30 μg/ml gentamicin, and 15 ng/mL amphotericin B at 37°C in an incubator with 5% CO2 flow in a humidified atmosphere. Passages 4 to 12 were used in experiments.
# Resazurin conversion to fluorescent resorufin was used as a measure for cell proliferation. Primary VSMC were seeded at 5 × 10^3 cells/well in a 96-well plate to grow for the next 24 h. Cells were then synchronized into G0 phase by serum deprivation for 24 h, pretreated with compounds for 30 min and stimulated with 20 ng/mL PDGF-BB for the next 48 h. After one washing step, cells were incubated in starvation medium containing 10 μg/mL resazurin for 2 h, and changes in fluorescence were monitored in a Tecan Spark (Tecan Group, Männedorf, Switzerland) plate reader at an excitation wavelength of 535 nm and an emission wavelength of 580 nm.
# [2] = design: method as in earlier work; settings: rats and humans; ref Nakazawa and Ohsawa, 1998; Baba et al., 2005; Wang et al., 2017; cited from earlier work
# [3] = design: method as in Baba et al., 2005; settings: human; ref Baba et al., 2005; cited from earlier work
# [4] = design: method as in Nakazawa and Ohsawa, 1998; settings: rat; ref Nakazawa and Ohsawa, 1998; cited from earlier work
# [5] = Stability of RA QC samples under different storage conditions; type: physicochemical, rat
# [6] = tested on: cultured VSMC; experiment: Intracellular bioavailability of RA esters (LC-MS/MS of cytoplasmic fractions); type: in vitro ADME, rat; settings: for intracellular concentration as share of applied concentration: 10 μmol/L applied; for intracellular content normalized to protein: at 8.5 h; for intracellularly accumulated concentration: after 0.5 h exposure to 10 μmol/L; for intracellular level relative to those of RAME and RAET: exposure to 10 μmol/L
# Protocol: After cells had been lysed and membranes had been removed by centrifugation, as described in the previous section, half of the cytoplasmic fractions were collected in 1.5 mL eppendorf tubes, diluted with methanol in 1:3 ratios and centrifuged at 5,600 × g for 20 min to remove proteins. Supernatants were then subjected to LC-MS/MS analysis to determine the cytoplasmic concentrations of RA esters at each treatment time point up to 16 h PDGF-BB stimulation. Cell culture media were also collected prior to the lysis procedure, diluted with methanol in a manner described above and subjected to LC-MS/MS. […] Intracellular concentrations of RA esters were normalized to protein concentrations at each treatment time point. Details of the quantification method are shown in the Supplementary Material.
# FIGURE 6 Esters of rosmarinic acid with longer alkyl groups show increased intracellular bioavailability.
# [7] = tested on: PDGF-BB-induced VSMC; experiment: Cell cycle analysis (PI staining, flow cytometry); type: cell-based, rat; settings: 3 μmol/L, PDGF-BB 16 h
# Protocol: Flow cytometry was used to analyze cell cycle progression. VSMC were seeded at a density of 10^5 cells per well in 12-well plates. After rendered quiescent, cells were treated with increasing concentrations of RAME (7), RAET (8), RABU (9) and RAOCT (10) or with 0.1% DMSO for 30 min followed by stimulation with 20 ng/mL PDGF-BB for 16 h. Cells were collected by trypsinization, washed and resuspended in a hypotonic propidium iodide (PI) solution containing 0.1% (v/v) Triton X-100, 0.1% (w/v) sodium citrate, and 50 μg/mL PI. PI-stained nuclei were analyzed on a FACSCalibur (BD Biosciences, Vienna, Austria) flow cytometer at an excitation wavelength of 488 nm and an emission wavelength of 585 nm.
# FIGURE 5 Ethyl, butyl and octyl esters of rosmarinic acid (RA) inhibit the proliferation of VSMC by exerting the same mechanism of action as the methyl ester (A) Quiescent VSMC were treated with 0.1% DMSO or increasing concentrations of RA esters as indicated for 30 min, stimulated with 20 ng/mL PDGF-BB for 16 h and the cell cycle progression was analyzed using PI staining and flow cytometry. […]
# [8] = tested on: VSMC; experiment: Cytotoxicity assay (LDH release) in PDGF-induced VSMC; type: cell-based; settings: PDGF-BB 24 h
# Protocol: Increased lactate dehydrogenase (LDH) release is an indicator for the loss of cell membrane integrity, associated with cell death. Determination of LDH release in response to increasing concentrations of RAME (7), RAET (8), RABU (9), RAOCT (10) and RADOD (11) was performed as previously described ([Liu et al., 2018]).
# FIGURE 4 Cytotoxicity of RA esters in PDGF-induced VSMC. VSMC were pretreated with 0.1% DMSO or increasing concentrations of RA esters as indicated for 30 min, stimulated with 20 ng/mL PDGF-BB for 24 h, and released LDH was determined. Digitonin (80 μmol/L) was used as a positive control. Graphs show means ± SD out of 3 (RAME, RAET and RABU) and 4 (RAOCT and RADOD) independent experiments (n.s., not significant, p > 0.05, **p < 0.01, ***p < 0.001, ANOVA/Bonferroni, “vehicle with PDGF-BB” vs. “RA ester with PDGF-BB”).
# [9] = tested on: CDK4; design: method as in Liu et al., 2018; settings: ref Liu et al., 2018; cited from earlier work
# [10] = tested on: CDK2; design: method as in Liu et al., 2018; settings: CDK2 kinase activity in vitro; ref Liu et al., 2018; cited from earlier work
# [11] = Long-term stability (15 d at -20°C), nominal 2 ng/mL
# [12] = Long-term stability (15 d at -20°C), nominal 800 ng/mL
# [13] = Post-preparative stability (8 h at 4°C), nominal 2 ng/mL
# [14] = Post-preparative stability (8 h at 4°C), nominal 800 ng/mL
# [15] = Short-term stability (8 h at room temperature), nominal 2 ng/mL
# [16] = Short-term stability (8 h at room temperature), nominal 800 ng/mL
# [17] = Stock Solution Stability (8 h at room temperature), nominal 2 ng/mL
# [18] = Stock Solution Stability (8 h at room temperature), nominal 800 ng/mL
smiles,measurement,setting,value
"O=C(O)/C=C/c1cccc(O)c1 [Compound 3, m-coumaric acid, reference compound]",activity at 10 µM,[1],107 ± 15.2%
"COc1cc(/C=C/C(=O)O)ccc1O [Compound 4, ferulic acid, reference compound]",activity at 10 µM,[1],107 ± 17.3%
"O=C(O)CCc1cccc(O)c1 [Compound 5, m-hydroxyphenylpropionic acid, reference compound]",activity at 10 µM,[1],120 ± 27.8%
"O=C(/C=C/c1ccc(O)c(O)c1)O[C@H](Cc1ccc(O)c(O)c1)C(=O)O [RA (6), Rosmarinic acid]",amount of orally ingested RA absorbed,[2],up to 1.69%
same,cumulative proportions of all RA metabolites detected in urine (of the administered dose),[3],~6%
same,activity at 10 µM,[1],78.1 ± 16.7%
same,cumulative proportions of all RA metabolites detected in urine (of the administered dose),[4],about 32%
same,Measured Concentration,"[5]; Freeze-thaw stability (three cycles), nominal 2 ng/mL",2.14 ± 0.09 ng/mL
same,Measured Concentration,"[5]; Freeze-thaw stability (three cycles), nominal 800 ng/mL",786.67 ± 50.06 ng/mL
same,Measured Concentration,[5]; [11],2.18 ± 0.09 ng/mL
same,RE,[5]; [11],8.83%
same,Measured Concentration,[5]; [12],770.67 ± 50.01 ng/mL
same,RE,[5]; [12],-3.67%
same,Measured Concentration,[5]; [13],1.88 ± 0.13 ng/mL
same,RE,[5]; [13],-5.83%
same,Measured Concentration,[5]; [14],737.00 ± 8.00 ng/mL
same,RE,[5]; [14],-7.88%
same,Measured Concentration,[5]; [15],1.79 ± 0.07 ng/mL
same,RE,[5]; [15],-10.67%
same,Measured Concentration,[5]; [16],762.33 ± 27.75 ng/mL
same,RE,[5]; [16],-4.71%
same,Measured Concentration,[5]; [17],1.90 ± 0.08 ng/mL
same,RE,[5]; [17],-4.83%
same,Measured Concentration,[5]; [18],782.33 ± 27.43 ng/mL
same,RE,[5]; [18],-2.21%
"CCCCOC(=O)[C@@H](Cc1ccc(O)c(O)c1)OC(=O)/C=C/c1ccc(O)c(O)c1 [RABU (9), rosmarinic acid butyl ester]",intracellular concentration as share of applied concentration,[6],60%
same,intracellular content normalized to protein,[6]; 10 μmol/L,around 2 pmol per µg of protein
same,intracellularly accumulated concentration,[6],about 6 μmol/L
same,intracellular level relative to those of RAME and RAET,[6],~3 fold
same,percentage of cells in G0/G1 compared to vehicle control,[7],significantly higher percentage of cells in G0/G1
same,activity at 10 µM,[1],30.8 ± 5.2%
same,IC50,[1],2.84 µM
same,cell death (LDH release),[8]; up to 30 μmol/L,did not induce cell death
"CCCCCCCCCCCCOC(=O)[C@@H](Cc1ccc(O)c(O)c1)OC(=O)/C=C/c1ccc(O)c(O)c1 [RADOD (11), rosmarinic acid dodecyl ester]",VSMC proliferation,[1]; 1 μmol/L (data not shown),unaffected
same,VSMC proliferation,[1]; 3 μmol/L (data not shown),completely abrogated
same,activity at 10 µM,[1],5.4 ± 8.1%
same,cell death (LDH release),[8]; 30 μmol/L,"comparable to that of the positive control, digitonin"
"CCOC(=O)[C@@H](Cc1ccc(O)c(O)c1)OC(=O)/C=C/c1ccc(O)c(O)c1 [RAET (8), rosmarinic acid ethyl ester]",intracellular concentration as share of applied concentration,[6],about 20%
same,intracellular content normalized to protein,[6]; 10 μmol/L,around 2 pmol per µg of protein
same,activity at 10 µM,[1],32.8 ± 8.1%
same,IC50,[1],3.37 µM
same,cell death (LDH release),[8]; up to 30 μmol/L,did not induce cell death
"COC(=O)[C@@H](Cc1ccc(O)c(O)c1)OC(=O)C=Cc1ccc(O)c(O)c1 [RAME (7), rosmarinic acid methyl ester]",intracellular concentration as share of applied concentration,[6],about 20%
same,intracellular content normalized to protein,[6]; 10 μmol/L,around 2 pmol per µg of protein
same,activity at 10 µM,[1],41.5 ± 10.9%
same,IC50,[1],7.9 µM
same,activity of CDK4,[9],affected only at much higher concentrations
same,IC50,[10],11.4 µM
same,cell death (LDH release),[8]; up to 30 μmol/L,did not induce cell death
"CCCCCCCCOC(=O)[C@@H](Cc1ccc(O)c(O)c1)OC(=O)/C=C/c1ccc(O)c(O)c1 [RAOCT (10), rosmarinic acid octyl ester]",concentration within VSMC,"[6]; 10 μmol/L, 16.5 h time point",remained relatively high
same,intracellularly accumulated concentration,[6],about 6 μmol/L
same,intracellular level relative to those of RAME and RAET,[6],~3 fold and ~4 fold
same,percentage of cells in G0/G1 compared to vehicle control,[7],significantly higher percentage of cells in G0/G1
same,activity at 10 µM,[1],33.8 ± 14.7%
same,IC50,[1],2.22 µM
same,cell death (LDH release),[8]; 30 μmol/L,marked but not significant increase in LDH production
same,LDH release,[8]; 3 and 10 μmol/L,"distinct LDH release, which however did not reach significance"
